Source: patent US20240140953A1, “INHIBITORS OF MENIN-MLL INTERACTION” (BIOMEA FUSION, INC., priority 2018, published 2024)
Like-named read-outs stand apart in the source and are kept apart here.

How the values were obtained:
[1] = biological target: menin (Homo sapiens (Human), UniProt O00255); test: Kd (Table 3A); type: binding
[2] = test system: HL-60; test: LTP assay, CellTiterGlo, T4-T14 (Example 103), HL-60; type: cell-based; conditions: for inhibition of cell viability (in words): HL-60, LTP assay
Procedure: (§1) The day of the experiment (T0) all the cell line suspensions were counted by Cell Viability Analyser, Vi-CELL and properly diluted with fresh medium to obtain the cell density reported in the Test System paragraph.
(§2) Cells were tested after 4 passages after thawing.
(§3) 200 μL/well and 150 μL/well of cell suspension were added into the 0.4 μL/well and 0.3 μL/well compound plates, respectively. • Cell plate containing 200 μL/well suspension was incubated at 37° C. in a humidified incubator with 5% CO2. • From each well of the 150 μL/well cell assay plate, 100 μL were harvested and transferred into a 96-well Optiplate (Perkin Elmer, Cat. n. 6005290) and cell viability was measured as described in 4.3 paragraphs (T0).
(§4) After four days in culture (T4) 150 μL/well of fresh medium were added into a new 0.3 μL/well copy compound plate. • From each well of the 200 μL/well cell assay plate: • 100 μL were sampled for the cell viability measurement as described in 4.3 paragraphs (T4). • 50 μL were harvested and added to the 150 μL/well compound plate prepared as described in the first point to dilute 1:4 the cell suspension. • The cell assay plate diluted and containing 200 μL/well suspension were incubated at 37° C. in a humidified incubator with 5% Co2.
(§5) At T7-T11-T14 it was proceeded as described in T4, with the exception that no further cell dilution was carried out at T14.
(§6) Plates containing the samples to be tested were equilibrated at room temperature for approximately 30 min and then 30 μL/well of the Promega CellTiterGlo® reagent were added.
(§7) Contents will be mixed for 5 min on an orbital shaker to induce cell lysis and then incubated at room temperature for an additional 10 min to stabilize the luminescent signal.
(§8) Luminescence was read by using VictorV (Perkin Elmer) multilabel plate reader using the standard protocol for luminescence in 96 well plate.
(§9) Data were expressed as % of inhibition compared to the 0.2% DMSO negative control, and was calculated as follows: […]
(§10) CRCs were analysed by GraphPad and IC50 values were calculated by non-linear regression using 4 parameter-logistic equation. IC50 (μM) values were reported in the final data table.
(§11) The curve fittings were performed leaving free all the parameters. Any constrain were reported in the results table.

[3] = test system: MOLM-13 (MLL-AF9); test: LTP assay, CellTiterGlo, T4-T14 (Example 103), MOLM-13; type: cell-based, human; conditions: for inhibition of cell viability (in words): MOLM-13, LTP assay
Procedure: as §1, §2, §3, §4, §5, §6, §7, §8, §9, §10, §11

[4] = test system: KG-1; test: Long term proliferation, Cell Titer-Glo (Table 3B), KG-1; type: cell-based; conditions: Homo sapiens, KG-1, Cell Titer-Glo
[5] = test system: MOLM-13; test: Long term proliferation, Cell Titer-Glo (Table 3B), MOLM-13; type: cell-based; conditions: Homo sapiens, MOLM-13, Cell Titer-Glo
[6] = test system: OCI-AML-3; test: Long term proliferation, Cell Titer-Glo (Table 3B), OCI-AML-3; type: cell-based; conditions: Homo sapiens, OCI-AML-3, Cell Titer-Glo
[7] = test system: KG-1; test: Long term proliferation, InCell (Table 3C), KG-1; type: cell-based; conditions: Homo sapiens, KG-1, InCell
Procedure: (§12) Compounds of invention are tested in the 5 suspension lines by 14-day long-term proliferation assay.
(§13) The compound is tested in 10-pt dose titration (client will determine the starting concentration and the dilution scheme) and the final DMSO concentration is kept at 0.2%.
(§14) Vehicle and media control are also included. All treatments are done in triplicate.
(§15) • 1) On Day 0, in a flat bottom 96-well plate, add 100 μL of cells per well at the densities optimized. • 2) Prepare compounds in DMSO at 500× final concentration. Dilute the compounds with DMSO at the dilution. • 3) Dilute the compounds in media at 3×final concentration. Add 50 μL of compound or DMSO at 3× final concentration to each well. Final volume in each well is 150 μL, and final concentration of DMSO is 0.2%. Also include 3 untreated control wells, by adding 50 μL of media alone. 4) Incubate plates for 96 hours. • 5) Count the cells using the Acumen, with capabilities for 96-well plates. Pipette cells up and down to mix in each well, and add desired volume of cells to a new flat bottom poly-D-lysine 96-well plate. Add Calcein AM at 1 μM final concentration. Let cells sit at RT for 10 mins followed by a quick spin to get cells settled on the bottom of the wells. Incubate the plate for additional 40 mins in the incubator. Take out the plate and read by Acumen. Calculate the cell numbers taken into account the dilution factors. • 6) Split the master plate. To do this take the total viable cell count calculated using step 5). Take the average of the replicates for each dose in order to be used in splitting the cells. • 7) Use a 96 well V-bottom plate to spin down the cells to remove old media and compound to split the cells. Based on the split ratio place the proper amount of media and cells into the V-bottom plate, and spin the plate at 1100 rpm for 5 minutes. • 8) Following the spin remove the media, careful not to disturb the cellpellet. • 9) Re-suspend pellet in 100 μL fresh media, and add to a new 96-well flat bottom plate. • 10) Add fresh compound, in the same manner as Step 3). • 11) Incubate plates for 72 hours. Repeat steps 5)-10) on Day 7. • 12) Incubate plates for 96 hours. Repeat Step 5)-10) on Day 11. • 13) Incubate 72 hours and repeat step 5) to take a final count. • 14) Data Analysis
(§16) To calculate growth for days 4, 7, 11, and 14: • Calculate the split factor for day 4 to 7, day 7 to 11, and day 11-14.

[8] = test system: MOLM-13; test: Long term proliferation, InCell (Table 3C), MOLM-13; type: cell-based; conditions: Homo sapiens, MOLM-13, InCell
Procedure: as §12, §13, §14, §15, §16

[9] = test system: MV4-11; test: Long term proliferation, InCell (Table 3C), MV4-11; type: cell-based; conditions: Homo sapiens, MV4-11, InCell
Procedure: as §12, §13, §14, §15, §16

[10] = HL-60, T4 (Day 4), read-out: IC50 T4 (Day 4)
[11] = Homo sapiens, HL-60, 96 h, HL-60, T4 (Day 4), read-out: IC50 T4 (Day 4)
[12] = Homo sapiens, HL-60, HL-60, T7, read-out: IC50 T7
[13] = Homo sapiens, HL-60, HL-60, T11, read-out: IC50 T11
[14] = Homo sapiens, HL-60, HL-60, T14, read-out: IC50 T14
[15] = Homo sapiens, MOLM-13, 96 h, MOLM-13 (MLL-AF9), T4 (Day 4), read-out: IC50 T4 (Day 4)
[16] = Homo sapiens, MOLM-13, MOLM-13 (MLL-AF9), T7, read-out: IC50 T7
[17] = Homo sapiens, MOLM-13, MOLM-13 (MLL-AF9), T11, read-out: IC50 T11
[18] = Homo sapiens, MOLM-13, MOLM-13 (MLL-AF9), T14, read-out: IC50 T14
[19] = MOLM-13 (MLL-AF9), T4 (Day 4), read-out: IC50 T4 (Day 4)
[20] = 96 h, Day 4, read-out: Day 4 IC50
[21] = 168 h, Day 7, read-out: Day 7 IC50
[22] = 264 h, Day 11, read-out: Day 11 IC50
[23] = 336 h, Day 14, read-out: Day 14 IC50

Sequence of menin (O00255 whole entry, species assumed): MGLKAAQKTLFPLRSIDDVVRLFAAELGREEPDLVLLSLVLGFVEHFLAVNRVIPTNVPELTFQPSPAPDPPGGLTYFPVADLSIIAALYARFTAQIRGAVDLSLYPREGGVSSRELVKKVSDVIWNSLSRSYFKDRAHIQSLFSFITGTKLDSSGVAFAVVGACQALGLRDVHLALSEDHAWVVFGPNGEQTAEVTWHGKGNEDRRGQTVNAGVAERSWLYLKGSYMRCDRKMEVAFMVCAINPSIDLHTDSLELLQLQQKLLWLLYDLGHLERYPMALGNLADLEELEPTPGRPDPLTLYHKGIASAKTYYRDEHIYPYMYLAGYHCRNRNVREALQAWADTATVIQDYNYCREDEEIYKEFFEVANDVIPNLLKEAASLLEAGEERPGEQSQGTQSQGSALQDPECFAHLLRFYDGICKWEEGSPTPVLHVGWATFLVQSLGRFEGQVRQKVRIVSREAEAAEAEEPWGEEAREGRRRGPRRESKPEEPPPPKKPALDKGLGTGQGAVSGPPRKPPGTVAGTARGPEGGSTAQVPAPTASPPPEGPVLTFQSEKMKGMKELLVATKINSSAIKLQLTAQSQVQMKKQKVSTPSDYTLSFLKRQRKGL

| SMILES | inhibition of cell viability (in words) [2] | IC50 [2, 10] [nM] | IC50 ([2]; HL-60, T7, read-out: IC50 T7) [nM] | IC50 [2, 11] [nM] | IC50 [2, 12] [nM] | IC50 [2, 13] [nM] | IC50 [2, 14] [nM] | IC50 [3, 15] [nM] | IC50 [3, 16] [nM] | IC50 [3, 17] [nM] | IC50 [3, 18] [nM] | IC50 [3, 19] [nM] | inhibition of cell viability (in words) [3] | other results |
| --- | --- | --- | --- | --- | --- | --- | --- | --- | --- | --- | --- | --- | --- | --- |
| O=C(Cc1cc(-c2cccnc2)n[nH]1)Nc1ccc(-c2nc3c(N4CCOCC4)ncnc3[nH]2)cc1 [Compound 12, N-{4-[6-(morpholin-4-yl)-9H-purin-8-yl]phenyl}-2-[3-(pyridin-3-yl)-1H-pyrazol-5-yl]acetamide] | No activity | > 10000 | > 10000 | > 5000 | > 5000 | > 5000 | > 5000 | > 5000 | 5750 | 562 | > 5000 | > 10000 | partial effect | Kd [1]: 500 ± 200 nM |
| O=C(Nc1ccc(-c2cc3c(N4CCOCC4)ncnc3[nH]2)cc1)Nc1cc(-c2cccnc2)n[nH]1 [Compound 9, 1-{4-[4-(morpholin-4-yl)-7H-pyrrolo[2,3-d]pyrimidin-6-yl]phenyl}-3-[3-(pyridin-3-yl)-1H-pyrazol-5-yl]urea] |  |  |  |  |  |  |  |  |  |  |  |  |  | IC50 [4, 20]: > 5000 nM; IC50 [4, 21]: 4790 nM; IC50 [4, 22]: 1700 nM; IC50 [4, 23]: 1230 nM; IC50 [5, 20]: 410 nM; IC50 [5, 21]: 240 nM; IC50 [5, 22]: 240 nM; IC50 [5, 23]: 480 nM; IC50 [6, 20]: 870 nM; IC50 [6, 21]: 710 nM; IC50 [6, 22]: 650 nM; IC50 [6, 23]: 720 nM; IC50 [7, 20]: 3310 nM; IC50 [7, 22]: 2290 nM; IC50 [8, 20]: 520 nM; IC50 [8, 22]: 340 nM; IC50 [9, 20]: 500 nM; IC50 [9, 22]: 430 nM |
| Cn1nc(-c2cccnc2)cc1CC(=O)Nc1ccc(-c2cc3c(N4CCOCC4)ncnc3[nH]2)cc1 [Compound 11, 2-[1-methyl-3-(pyridin-3-yl)-1H-pyrazol-5-yl]-N-{4-[4-(morpholin-4-yl)-7H-pyrrolo[2,3-d]pyrimidin-6-yl]phenyl}acetamide] | fully inhibited cell viability | 692 | 389 | 690 | 390 | 480 | 470 | 660 | 513 | 320 | 420 | 661 | fully inhibited cell viability |  |
